Reference: patent US10981926B2 (Janssen Pharmaceutica NV, priority 2016, dated 2021)
Like-named read-outs stand apart in the source and are kept apart here.

Key:
[1] = molecular target: T1, F876L mutant Androgen Receptor (AR-F876L) (Homo sapiens (Human), UniProt P10275, F877L); experiment: LNCaP-AR-F876L ANT reporter assay (antagonist mode); format: cell-based
AR (human) = AR (human) (Homo sapiens (Human), UniProt P10275, T878A); experiment: Radioligand binding to AR; conditions: [3H]methyltrienolone, LNCaP cells (cytosol)
AR (human), sequence (P10275 whole entry T878A): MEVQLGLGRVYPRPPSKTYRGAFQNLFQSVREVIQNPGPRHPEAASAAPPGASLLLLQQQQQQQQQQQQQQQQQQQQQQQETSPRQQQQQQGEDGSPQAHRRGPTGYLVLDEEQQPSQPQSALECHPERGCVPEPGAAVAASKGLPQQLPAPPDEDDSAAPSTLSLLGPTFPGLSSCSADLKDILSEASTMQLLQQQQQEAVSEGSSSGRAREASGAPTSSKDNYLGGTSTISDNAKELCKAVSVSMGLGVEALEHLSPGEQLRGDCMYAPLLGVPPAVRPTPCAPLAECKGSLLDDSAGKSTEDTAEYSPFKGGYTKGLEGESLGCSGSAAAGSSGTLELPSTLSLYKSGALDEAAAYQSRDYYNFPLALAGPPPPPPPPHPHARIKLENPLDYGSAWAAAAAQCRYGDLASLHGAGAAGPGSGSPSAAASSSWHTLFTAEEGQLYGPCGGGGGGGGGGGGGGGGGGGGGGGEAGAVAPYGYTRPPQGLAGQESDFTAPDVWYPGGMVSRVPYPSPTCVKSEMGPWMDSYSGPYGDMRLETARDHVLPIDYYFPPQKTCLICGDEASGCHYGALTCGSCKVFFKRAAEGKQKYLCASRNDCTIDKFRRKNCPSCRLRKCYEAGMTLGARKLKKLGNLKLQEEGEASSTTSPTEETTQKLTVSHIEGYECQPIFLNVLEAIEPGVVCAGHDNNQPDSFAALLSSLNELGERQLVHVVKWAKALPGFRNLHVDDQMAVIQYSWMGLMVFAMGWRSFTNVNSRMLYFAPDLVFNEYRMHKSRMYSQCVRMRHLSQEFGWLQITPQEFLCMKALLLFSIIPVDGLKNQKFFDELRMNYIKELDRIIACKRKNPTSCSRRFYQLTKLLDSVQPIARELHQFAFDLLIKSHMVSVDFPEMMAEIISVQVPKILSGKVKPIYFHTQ
Method: Radioligand binding assays were performed with the cell extracts and ligands as detailed below. Complete methodology is contained within the cited publications. Kd values were determined by Non-Specific Incubation Detection Method.
AR (human) (agonist radioligand) LNCaP cells (cytosol)
[^3H]methyltrienolone 1 nM 0.8 nM mibolerone (1 μM) 24 h 4° C. Scintillation counting.
The results are expressed as a percent of control specific binding measured specific binding*100 control specific binding and as a percent inhibition of control specific binding 100-(measured specific binding*100) control specific binding obtained in the presence of compound.
The IC50 values (concentration causing a half-maximal inhibition of control specific binding) and Hill coefficients (nH) were determined by non-linear regression analysis of the competition curves generated with mean replicate values using Hill equation curve fitting. Y=D+[A−D] 1+(C/C50)nH
wherein Y=specific binding, A=left asymptote of the curve, D=right asymptote of the curve, C=compound concentration, C50=IC50, and nH=slope factor. […]
The inhibition constants (Ki) were calculated using the Cheng Prusoff equation: Ki=[…]
Radioligand binding inhibition and affinity calculations were determined using [^3H]-methyltrienolone, [^3H]-dexamethasone and [^3H]-estradiol for AR, GR and ER, respectively. […]

[2] = molecular target: T1, F876L mutant Androgen Receptor (AR-F876L); experiment: LNCaP-AR-F876L AG reporter assay (agonist mode); format: cell-based
22RV1 cells = experiment: 22RV1 Proliferation Assay; format: cell-based; conditions: Homo sapiens, 120 h
Method: (§1) 22RV1 were obtained from ATCC and cultured in RPMI 1640 supplemented with 10% FBS. Cells were seeded at a density of 4,500 cells/well into Greiner 384-well, white, optical-bottom plates in RPMI 1640 phenol red-free medium with 1% charcoal stripped FBS and incubated for 2 days at 37° C. The cells were treated with a compound of Formula (I) in 12-point dose-response both in the presence and absence of 0.1 nM R1881 for 5 days. To determine cell viability, CellTiter-Glo reagent (Promega) was added to each well according to the manufacturer's instructions, placed on a shaker at 300 rpm for 10 min, and luminescence recorded using an EnVision plate reader (Perkin Elmer). The data was exported to GraphPad Prism and analyzed using the Four Parameter equation to obtain IC50 values for each compound. Each compound was tested in at least three independent experiments.

[3] = molecular target: AR-FL and AR-V7 in 22RV1 cells; experiment: 22RV1 AR-FL and AR-V7 Transcriptional Reporter Assay; format: cell-based
Method: as §1, with “of 15,000” for “of 4,500”, “compound or” for “compound of”, “12-point dose-response,” for “12-point dose-response”, “for 18-24 hrs. At the end of assay, Steady-Glo” for “for 5 days. To determine cell viability, CellTiter-Glo”

AR H874Y = AR H874Y (Homo sapiens (Human), UniProt P10275, H875Y); experiment: Luciferase Transcriptional Reporter Assay, AR H874Y (HepG2); format: cell-based
AR H874Y, sequence (P10275 whole entry H875Y): as the sequence (P10275 whole entry T878A) above, with H875Y, A878T counted along it
Method: HepG2 cells were maintained in EMEM supplemented with 10% FBS. One day before transfection, the media was changed to EMEM with 10% CSS. T-150 flasks were transiently transfected using 120 μL Lipofectamine 2000 (Life Technologies), 30 μg mutant cDNA (expression vector)—mutant cDNA tested were L701H, T877A, W741C and H874Y—and 40 μg 4×ARE-Luciferase (reporter vector) in OptiMEM and the flasks were incubated overnight. Cells were then trypsinized, counted and resuspended at 500,000 cells/mL. For agonist mode, the compounds of Formula (I) were serially diluted and 50 μL of the compound was added per well. 50 μL of the cells were added to each well and incubated for 48 hours. For antagonist mode, a final concentration of 90 pM R1881 was added to the diluted compounds and incubated for 48 hours. The plates were then assayed using SteadyGlo and read on the Envision. Percent Stimulation and Inhibition were determined and analyzed using GraphPad Prism.
F876L agonism was evident at 3 and 10 μM (5%) but zero at 30 μM. The antagonistic (IC50) and agonistic (EC50) values for each of the AR cDNA used in the reporter assays are summarized. All values are calculated relative to the activity of R1881 induced androgen receptor activity (n≥3). Also indicated are the maximal inhibition and extent of induction of androgen dependent signaling (%).

T1 sequence (P10275 whole entry F877L): as the sequence (P10275 whole entry T878A) above, with F877L, A878T counted along it

LNCaP-AR-F876L ANT pIC50 ([1]; antagonist mode, pIC50 = −Log10(IC50 in Molar)): 7.43
LNCaP-AR-F876L ANT MAX % Inh ([1]; maximum % inhibition of R1881 control response over the tested concentration range): 100.0%
IC50 (AR (human)): 0.0069 µM
Ki (AR (human); Cheng Prusoff): 0.003 µM
EC50 ([2]; agonist mode, pEC50 = −Log10(EC50 in Molar), read-out: LNCaP-AR-F876L AG pEC50 (converted)): > 15.1 µM
LNCaP-AR-F876L AG MAX % Stim ([2]; maximum % stimulation (agonist response) over the tested concentration range): 0.1%
IC50 (22RV1 cells; 22RV1, in the absence of 0.1 nM R1881, 5 days, read-out: IC50, agonist mode): 492 µM
IC50 (22RV1 cells; 22RV1, in the presence of 0.1 nM R1881, 5 days, read-out: IC50, antagonist mode): 260 µM
IC50 ([3]; 22RV1, in the absence of 0.1 nM R1881, read-out: IC50, agonist mode): 121 µM
IC50 ([3]; 22RV1, in the presence of 0.1 nM R1881, read-out: IC50, antagonist mode): 0.348 µM
Emax (AR H874Y; HepG2, agonist mode, relative to R1881, read-out: Agonism % Emax, AR construct H874Y): 0%
IC50 (AR H874Y; HepG2, antagonist mode, 90 pM R1881, 48 hours, read-out: Antagonism IC50, AR construct H874Y): 16.8 µM
Emax (AR H874Y; HepG2, antagonist mode, maximal inhibition, read-out: Antagonism % Emax, AR construct H874Y): 80%
SMILES: N#Cc1ncc(N2C(=O)C3(CCC3)N(c3ccc(OC4CCNCC4)nc3)C2=S)cc1C(F)(F)F [Cpd 43, 5-[5-oxo-8-[6-(4-piperidyloxy)-3-pyridyl]-7-thioxo-6,8-diazaspiro[3.4]octan-6-yl]-3-(trifluoromethyl)pyridine-2-carbonitrile]
